Test results reported in the CheMixHub viscosity set.
Several values for one entry are separate records, joined by “and”; a condition that tells them apart may be missing. Equal entries are not always repeated.

Assays:
[1] = xn = mol fraction of the nth substance listed

CCCCCCCC/C=C\CCCCCCCC(=O)O
101 kPa
Details	viscosity [mPa·s]
298.15 K	35.41
323.15 K	14.38

CCCC[N+]1(C)CCCC1.O=S(=O)([N-]S(=O)(=O)C(F)(F)F)C(F)(F)F
viscosity
Details	293.15 K	295.2 K	298.15 K	303.15 K	308.15 K	313.15 K	318.15 K
100 kPa	97.99 mPa·s and 90.17 mPa·s	–	74.9 mPa·s and 70.12 mPa·s	61.58 mPa·s and 56.19 mPa·s	50.81 mPa·s and 45.8 mPa·s	37.99 mPa·s	34.58 mPa·s
101 kPa	86.03 mPa·s and 86.05 mPa·s	–	68.14 mPa·s and 68.16 mPa·s and 70.5 mPa·s	54.03 mPa·s and 54.05 mPa·s	44.37 mPa·s and 44.38 mPa·s	42 mPa·s and 35.75 mPa·s and 35.76 mPa·s	29.71 mPa·s and 29.72 mPa·s
101.3 kPa	–	80 mPa·s	–	–	–	–	–

[Cl-].[Cl-].[Cl-].[Cl-].[Sn+4]
101 kPa
Details	viscosity
293.15 K	0.951 mPa·s and 0.927 mPa·s
298.15 K	0.919 mPa·s and 0.8145 mPa·s
313.15 K	0.715 mPa·s and 0.758 mPa·s
323.15 K	0.668 mPa·s and 0.683 mPa·s and 0.683 mPa·s

OCCC1CCCCN1 (configuration not stated)
Details	viscosity [mPa·s]
313.15 K, 101.3 kPa	77.17

CCOS(=O)(=O)[O-].CC[n+]1ccn(C)c1
viscosity
Details	298.15 K	303.15 K	308.15 K	313.15 K	318.15 K	323.15 K
100 kPa	96.87 mPa·s and 95.9 mPa·s	76.51 mPa·s and 75.7 mPa·s	61.6 mPa·s	61.6 mPa·s	50.5 mPa·s	35.03 mPa·s
101 kPa	95.9 mPa·s and 95.5 mPa·s	75.63 mPa·s and 75.4 mPa·s	–	49.45 mPa·s	–	34.24 mPa·s

CN(c1ccccc1)c1ccccc1
101 kPa
Details	viscosity
293.15 K	7.25 mPa·s
293.25 K	7.22 mPa·s
303.15 K	5.13 mPa·s
313.15 K	3.84 mPa·s and 3.835 mPa·s

CCC(C)CC
101.33 kPa
Details	viscosity [mPa·s]
298 K	0.288
298.15 K	0.2909

CC(O)C(=O)[O-].CN(C)C(=N)[NH+](C)C
101 kPa
Details	viscosity [mPa·s]
303.15 K	13700
308.15 K	7300
313.15 K	3960
318.15 K	2260
323.15 K	1370

O=C1CCCN1
101.33 kPa
Details	viscosity [mPa·s]
304.15 K	10.5
308.15 K	9.102
313.15 K	7.687
318.15 K	6.593
323.15 K	5.666

CC=CC(=O)OCC
101 kPa
Details	viscosity [mPa·s]
293.15 K	0.8184
298.15 K	0.7576
303.15 K	0.7053
313.15 K	0.6154
323.15 K	0.5471

CC(C)Cc1ccccc1
viscosity [mPa·s]
Details	293.15 K	303.15 K	313.15 K	323.15 K
101 kPa	–	0.899	0.771	–
102 kPa	1.02	0.883	0.769	0.68

OCCCCO
viscosity
Details	293.15 K	298.15 K	303.15 K	308.15 K	313.15 K	318.15 K	323.15 K
101 kPa	96.5 mPa·s and 96.8 mPa·s	72.8 mPa·s and 72.1 mPa·s and 75.6 mPa·s	54.3 mPa·s and 57.2 mPa·s and 50.53 mPa·s	–	32.8 mPa·s and 35.4 mPa·s and 37.03 mPa·s	–	–
101.3 kPa	92.14 mPa·s	71.91 mPa·s	–	45.04 mPa·s	36.26 mPa·s	29.38 mPa·s	24.18 mPa·s
101.33 kPa	91.27 mPa·s	72.83 mPa·s	56.05 mPa·s	45.06 mPa·s	36.02 mPa·s	30.61 mPa·s	–

[Cl-].[Cl-].[Cl-].[Cl-].[Sn+4] + CCCC(=O)OC
[1], 101 kPa, x1 = 0.335
Details	viscosity [mPa·s]
298.15 K	22.06
323.15 K	4.849

CCC[NH3+].O=[N+]([O-])[O-] + O
[1], 298 K, 101 kPa
Details	viscosity [mPa·s]
x2 = 0.1	50.56
x2 = 0.198	34.71
x2 = 0.294	24.59
x2 = 0.397	16.65
x2 = 0.494	11.43
x2 = 0.596	7.63
x2 = 0.696	5.02
x2 = 0.797	3.19
x2 = 0.9	1.86
x2 = 0.95	1.35

Cc1cc(C)cc(C)c1 + c1ccccc1
viscosity [mPa·s], [1], 101 kPa
Details	x1 = 0.0992	x1 = 0.1997	x1 = 0.3013	x1 = 0.4024	x1 = 0.504	x1 = 0.5997	x1 = 0.7035	x1 = 0.7997	x1 = 0.9018
303 K	0.5455	0.5407	0.5421	0.546	0.5511	0.5579	0.5714	0.5833	0.596
313 K	0.4826	0.4807	0.4822	0.4861	0.4905	0.4999	0.5097	0.5201	0.5336
323 K	0.4308	0.4229	0.4325	0.4374	0.439	0.4507	0.4587	0.4681	0.4791

O=S=O + Cc1cc(C)cc(C)c1
[1], 298.15 K, 101 kPa
Details	viscosity [mPa·s]
x1 = 0.137	0.6381
x1 = 0.223	0.6062
x1 = 0.255	0.5926

CC(C)CN
Details	viscosity [mPa·s]
298.15 K, 101 kPa	0.563

O=C1CCCN1 + CN1CCCC1=O
[1], 298.15 K, 100 kPa
Details	viscosity [mPa·s]
x1 = 0.0188	1.759
x1 = 0.0298	1.79
x1 = 0.0397	1.827
x1 = 0.0507	1.835
x1 = 0.065	1.874
x1 = 0.0793	1.963
x1 = 0.097	1.992
x1 = 0.1004	1.999
x1 = 0.1498	2.168
x1 = 0.1993	2.356
x1 = 0.2495	2.568
x1 = 0.3001	2.808
x1 = 0.3497	3.067
x1 = 0.3986	3.361
x1 = 0.4492	3.704
x1 = 0.4994	4.091
x1 = 0.5493	4.53
x1 = 0.5989	5.022
x1 = 0.6497	5.608
x1 = 0.6992	6.263
x1 = 0.7487	7.017
x1 = 0.7986	7.914
x1 = 0.8494	8.966
x1 = 0.8984	10.14
x1 = 0.918	10.67
x1 = 0.9287	10.99
x1 = 0.9394	11.33
x1 = 0.959	12.01
x1 = 0.9695	12.29
x1 = 0.9798	12.64
x2 = 0.0111	12.96
